Among the test systems are MDA-MB-435; M14 melanoma; MOLT-4 leukemia; UACC-257 melanoma; A549 NSCLC; SK-MEL-28 melanoma; SNB-75 CNS; 786-0 renal; DMS 273 small cell lung; LOX IMVI melanoma.
Holding throughout (assay): NCI-60 cell line screen, 48 h

Here are results for 18 molecules from PubChem BioAssay (NCI).

Where “and” joins values, the source holds several entries; their conditions need not be identical. Equal entries are not always repeated.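 Protocol summary: plate cells (96-well), add compound at 5 concentrations, incubate 48 h, interpolate endpoints linearly. Here, GI50 denotes the concentration required for 50% inhibition of growth. TGI is the concentration that stops growth completely.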

For `CC(C)CCN(CCC(C)C)CC(=O)Nc1ccc(S(=O)(=O)c2ccc(NC(=O)CN(CCC(C)C)CCC(C)C)cc2)cc1`, the GI50 with MDA-MB-435 is 2.15 µM; in the assay with M14 melanoma, 1.58 µM; with MOLT-4 leukemia, 2.28 µM; with UACC-257 melanoma, 3.01 µM; in the assay with A549 NSCLC, 5.38 µM; in the assay with SK-MEL-28 melanoma it was 2.64 µM. The GI50 with SNB-75 CNS is 13.3 µM. Further, the TGI came to 6.07 µM in the assay on MDA-MB-435; 4.01 µM in the assay on M14 melanoma; 7.44 µM with MOLT-4 leukemia; 13.6 µM in the assay with UACC-257 melanoma; 25.7 µM in the assay with A549 NSCLC; 9.98 µM in the assay with SK-MEL-28 melanoma. In addition, the TGI in the assay on SNB-75 CNS amounted to 42 µM.

In the case of `C=C(CN(C)C)C(=O)c1ccccc1OC`, the TGI with MDA-MB-435 was 34.2 µM; in the assay with M14 melanoma, 28.9 µM; in the assay with MOLT-4 leukemia it was > 20.8 µM; in the assay with UACC-257 melanoma, 30 µM; with 786-0 renal it was 30 µM; with DMS 273 small cell lung it was 34 µM. Moreover, the TGI in the assay with LOX IMVI melanoma is 29.3 µM; with A549 NSCLC it was > 100 µM; in the assay with SK-MEL-28 melanoma it was 38.2 µM; in the assay on SNB-75 CNS it was 61 µM.

Regarding `N#Cc1c(-c2ccc([N+](=O)[O-])cc2)c2c([nH]c1=O)-c1ccccc1CCC2`, the TGI in the assay on MDA-MB-435, in the assay with M14 melanoma, in the assay with MOLT-4 leukemia, in the assay on UACC-257 melanoma, with 786-0 renal and in the assay on LOX IMVI melanoma was > 100 µM each time. Besides, the TGI in the assay with A549 NSCLC and in the assay on SK-MEL-28 melanoma was > 100 µM throughout.

With `O=C1OC(c2ccc(O)cc2)(c2ccc(O)cc2)c2ccc(Cl)c3cccc1c23` (tested in a mixture with another compound), the TGI in the assay with MDA-MB-435 is 18.9 µM; with M14 melanoma, 19.8 µM; in the assay on UACC-257 melanoma it was 70.1 µM; with LOX IMVI melanoma, 20.8 µM; in the assay with A549 NSCLC, > 75 µM; in the assay on SK-MEL-28 melanoma it was 21.1 µM.

Regarding `CC(=O)OC(C(=O)O)C(OC(C)=O)C(OC(C)=O)C(OC(C)=O)C(=O)O` (stereo not given), the TGI with MDA-MB-435, with M14 melanoma, in the assay on MOLT-4 leukemia, in the assay with UACC-257 melanoma, in the assay on LOX IMVI melanoma and in the assay on A549 NSCLC was > 100 µM throughout. In addition, the TGI with SK-MEL-28 melanoma was > 100 µM.

As to `Cc1csc2nc(-c3cccc([N+](=O)[O-])c3)c(/C=N/N=C(N)N)n12`, the TGI in the assay on MDA-MB-435 is 3.03 µM; in the assay on M14 melanoma it was 3.1 µM; with UACC-257 melanoma, 3.22 µM; in the assay with 786-0 renal it was 2.91 µM; in the assay on A549 NSCLC, 3.34 µM; in the assay on SK-MEL-28 melanoma, 3.15 µM. In the assay with SNB-75 CNS, this molecule had a TGI of 3.16 µM.

For `O=C(O)c1cc2ccccc2c(N=Nc2ccc(S(=O)(=O)Nc3ccccn3)cc2)c1O`, the TGI with MDA-MB-435, with M14 melanoma, in the assay on MOLT-4 leukemia, in the assay with UACC-257 melanoma, with 786-0 renal and in the assay on A549 NSCLC was > 100 µM each time. In addition, the TGI in the assay with SK-MEL-28 melanoma and in the assay with SNB-75 CNS was > 100 µM each time.

Turning to `COc1ccccc1C#C/C=C\C#Cc1ccccc1C#N`, the TGI was 14.5 µM with MDA-MB-435; 46.5 µM with M14 melanoma; 38.4 µM with MOLT-4 leukemia; 94.6 µM with UACC-257 melanoma; 81.8 µM with 786-0 renal; > 100 µM with A549 NSCLC. The TGI in the assay on SK-MEL-28 melanoma and in the assay with SNB-75 CNS was > 100 µM each time.

`COC(=O)c1c(O)ccc2c1c1c(n2CCc2ccc(OC)c(OC)c2)C(=O)c2ccccc2C1=O`: the TGI was determined as 29.2 µM in the assay on MDA-MB-435; 31 µM with M14 melanoma; 65.8 µM in the assay on MOLT-4 leukemia; 35.8 µM in the assay with UACC-257 melanoma; 32 µM in the assay on 786-0 renal; 47.2 µM in the assay on A549 NSCLC. Besides, the TGI in the assay with SK-MEL-28 melanoma was 24.8 µM.

Take `Cc1ncc(C(=O)Nc2ccc(CN3CCN(C)CC3)c(C(F)(F)F)c2)cc1C#Cc1cnc(N)c2ccc(C#N)cc12`: in the assay on MOLT-4 leukemia, the GI50 is 0.0559 µM and the TGI is > 100 µM. Besides, in the assay on UACC-257 melanoma, the GI50 is 0.0538 µM and the TGI was 1.61 µM.

Consider `Brc1ccc(-c2[nH]c3ccccc3c2/C=N\Nc2ccc(-c3nc4ccccc4[nH]3)cc2)cc1`, for which the TGI in the assay on M14 melanoma was > 100 µM; in the assay with MOLT-4 leukemia, 22.1 µM; in the assay with UACC-257 melanoma, > 100 µM; in the assay with 786-0 renal, > 42 µM; with LOX IMVI melanoma it was > 100 µM; in the assay with A549 NSCLC it was > 100 µM.

On to `CC[C@@]1(O)CC(OC2CC(N3CCOCC3)C(O)C(C)O2)c2c(O)c3c(c(O)c2[C@H]1O)C(=O)c1cccc(O)c1C3=O` (stereo not given in full), for which the TGI in the assay with MDA-MB-435 was 1.14 µM; in the assay on M14 melanoma, 1.51 µM; with MOLT-4 leukemia, 0.369 µM and 0.128 µM; with UACC-257 melanoma, 1.34 µM and 0.69 µM; with 786-0 renal, 2.18 µM; in the assay on DMS 273 small cell lung, 1.1 µM and 0.393 µM. In addition, the TGI with LOX IMVI melanoma was 0.886 µM and 0.437 µM; in the assay on A549 NSCLC, 0.6 µM; in the assay on SK-MEL-28 melanoma, 1.8 µM and 1.94 µM; in the assay with SNB-75 CNS it was 0.93 µM and 0.399 µM. Moreover, the GI50 with UACC-257 melanoma is 0.108 µM; with DMS 273 small cell lung it was 0.018 µM; with LOX IMVI melanoma, 0.0207 µM; in the assay with A549 NSCLC, 0.000605 µM; in the assay on SNB-75 CNS, 0.0452 µM.

On to `O=S(=O)(c1ccccc1)C1CC(c2nc3ccccc3[nH]2)=NO1` (stereo not given), for which the TGI with MDA-MB-435, in the assay with MOLT-4 leukemia, in the assay on UACC-257 melanoma, in the assay with LOX IMVI melanoma, with A549 NSCLC and with SK-MEL-28 melanoma was > 100 µM each time. Also, the TGI with SNB-75 CNS is > 100 µM.

For the molecule `Cc1[nH]c(C(=O)Nc2ccc(C(=O)NCCN)cc2OC(C)C)c(Cl)c1Cl`, the GI50 in the assay with MDA-MB-435 is 1.66 µM; in the assay with SK-MEL-28 melanoma, 1.76 µM; with SNB-75 CNS, 1.55 µM. Further, the TGI was 3.08 µM with MDA-MB-435, 3.21 µM in the assay on SK-MEL-28 melanoma and 3.07 µM in the assay with SNB-75 CNS.

As to `O=C(CSCC(=O)N/N=C\c1ccc(F)cc1F)N/N=C\c1ccc(F)cc1F`, the TGI with MDA-MB-435, with M14 melanoma, with MOLT-4 leukemia, in the assay on UACC-257 melanoma, in the assay on 786-0 renal and in the assay on LOX IMVI melanoma was > 100 µM throughout. For the same molecule, the TGI in the assay with A549 NSCLC, with SK-MEL-28 melanoma and in the assay on SNB-75 CNS was > 100 µM in each case.

In the case of `c1ccc(CSC(SCc2ccccc2)c2cccc3ccccc23)cc1`, the TGI in the assay with MDA-MB-435, in the assay on M14 melanoma, in the assay with MOLT-4 leukemia, in the assay on A549 NSCLC, in the assay with SK-MEL-28 melanoma and with SNB-75 CNS was > 10 µM each time.

Take `C[n+]1c2ccccc2c(N=[N+]=[N-])c2ccccc21`: the TGI in the assay on MDA-MB-435 was > 10 µM; with M14 melanoma it was > 10 µM; in the assay on MOLT-4 leukemia, > 10 µM; with UACC-257 melanoma, > 10 µM; with 786-0 renal it was > 10 µM; in the assay with LOX IMVI melanoma it was 7.63 µM. Besides, the TGI in the assay with A549 NSCLC and in the assay on SK-MEL-28 melanoma was > 10 µM each time.

As for `C[N+]1(C(CO)Cc2c[nH]c3ccccc23)Cc2ccccc2C1` (stereo not given), the TGI in the assay on MDA-MB-435, in the assay with M14 melanoma, with MOLT-4 leukemia, in the assay on UACC-257 melanoma, in the assay on 786-0 renal and in the assay on LOX IMVI melanoma was > 100 µM throughout. Besides, the TGI in the assay with A549 NSCLC, in the assay with SK-MEL-28 melanoma and with SNB-75 CNS was > 100 µM in each case.
